Source: ChEMBL document CHEMBL1201862, “PubChem BioAssay data set” (2004)
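Cells were grown in 96-well plates and exposed to each compound for 48 hours at five concentrations; endpoints were interpolated linearly between bracketing concentrations, or set to the highest concentration if not reached. GI50: concentration for 50% inhibition of growth.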 The source made the active and inactive calls. No stated cut-off is given here; in the data, active = GI50 up to about 1.1 µM and inactive = higher.

Key:
Assay in all cases: inhibition of tumour cell growth, NCI panel, 48 h
M14 = system: M14
LOX IMVI = system: LOX IMVI
Malme-3M = system: Malme-3M
M19-MEL = system: M19-MEL
A549 = system: A549
U-251 = system: U-251
SK-MEL-5 = system: SK-MEL-5
RPMI-8226 = system: RPMI-8226
NCI-H522 = system: NCI-H522
RXF 393 = system: RXF 393
UO-31 = system: UO-31
SK-MEL-28 = system: SK-MEL-28
K562 = system: K562
TK-10 = system: TK-10
COLO 205 = system: COLO 205
KM12 = system: KM12
OVCAR-8 = system: OVCAR-8
HCT-116 = system: HCT-116

Measured: GI50

COc1cc2c(cc1OC)-c1c(cc(OC)c(OC)c1OC)C2=O
inactive: M14 > 100 µM | LOX IMVI > 100 µM | Malme-3M > 100 µM | M19-MEL > 100 µM | A549 > 100 µM | U-251 > 100 µM | SK-MEL-5 77.1 µM | RPMI-8226 > 100 µM | NCI-H522 49 µM | RXF 393 > 100 µM | UO-31 83.4 µM | SK-MEL-28 > 100 µM | K562 > 100 µM | TK-10 > 100 µM | COLO 205 > 100 µM | KM12 > 100 µM | OVCAR-8 > 100 µM | HCT-116 > 100 µM

O=C1C2Nc3ccccc3SC2C(=O)N1c1ccc(Br)cc1 (stereo unspecified)
inactive: M14 33.5 µM | LOX IMVI 27.9 µM | Malme-3M 27.2 µM | M19-MEL 57.1 µM | A549 31.6 µM | SK-MEL-5 16.2 µM | RPMI-8226 13.1 µM | NCI-H522 21.7 µM | RXF 393 18.2 µM | UO-31 18.4 µM | SK-MEL-28 62.2 µM | K562 21.9 µM | TK-10 28.8 µM | COLO 205 55.5 µM | KM12 28.2 µM | OVCAR-8 37.4 µM

Cc1ccc(Cl)c(NC(=O)C(=O)C(C(=O)c2ccncc2)C2OC(=O)c3ccccc32)c1 (stereo unspecified)
inactive: M14 > 100 µM | LOX IMVI > 100 µM | Malme-3M > 100 µM | M19-MEL > 100 µM | A549 > 100 µM | U-251 > 100 µM | SK-MEL-5 > 100 µM | RPMI-8226 > 100 µM | NCI-H522 > 100 µM | RXF 393 > 100 µM | UO-31 > 100 µM | SK-MEL-28 > 100 µM | K562 > 100 µM | TK-10 > 100 µM | COLO 205 > 100 µM | OVCAR-8 > 100 µM | HCT-116 > 100 µM

CC1(C)COC(C2(C)C(=O)C=C(c3ccccc3)c3ccccc32)=N1 (stereo unspecified)
inactive: M14 46.1 µM | Malme-3M 11.5 µM | M19-MEL 42.8 µM | A549 33.3 µM | U-251 59.4 µM | SK-MEL-5 > 100 µM | RPMI-8226 34.9 µM | NCI-H522 35.5 µM | RXF 393 55.3 µM | UO-31 28.3 µM | SK-MEL-28 42.9 µM | K562 33.3 µM | TK-10 93.8 µM | COLO 205 42.6 µM | KM12 47.3 µM | OVCAR-8 46.8 µM | HCT-116 44.1 µM

CC1=CP(=O)(c2ccccc2)C=C(C)C1=C(Cl)Cl (stereo unspecified)
inactive: M14 4.99 µM | LOX IMVI 4.05 µM | M19-MEL 12.2 µM | A549 6.24 µM | U-251 6.71 µM | SK-MEL-5 4.67 µM | RPMI-8226 2.5 µM | NCI-H522 2.6 µM | RXF 393 16.9 µM | SK-MEL-28 11.2 µM | K562 3.21 µM | TK-10 4.68 µM | COLO 205 4.45 µM | KM12 3.37 µM | OVCAR-8 10.9 µM | HCT-116 3.2 µM

CCOC(=O)NC(=O)c1cn(CCCOC(=O)NCCCCCCNC(=O)OCCCn2c(=O)c(C(=O)NC(=O)OCC)cn(C)c2=O)c(=O)n(C)c1=O
inactive: M14 > 100 µM | LOX IMVI > 100 µM | Malme-3M > 100 µM | M19-MEL > 100 µM | A549 > 100 µM | U-251 61.2 µM | RPMI-8226 > 100 µM | NCI-H522 > 100 µM | RXF 393 24.8 µM | UO-31 > 100 µM | SK-MEL-28 > 100 µM | K562 > 100 µM | TK-10 88.7 µM | COLO 205 > 100 µM | KM12 > 100 µM | OVCAR-8 > 100 µM | HCT-116 > 100 µM

COc1ccc(/C=N/N=C(\N)NO)c(OC)c1
inactive: LOX IMVI 24.7 µM | Malme-3M 68.7 µM | M19-MEL 24.5 µM | A549 31.8 µM | U-251 > 100 µM | SK-MEL-5 59.8 µM | RPMI-8226 84.3 µM | NCI-H522 > 10 µM | RXF 393 54 µM | UO-31 13.8 µM | SK-MEL-28 > 100 µM | K562 15.7 µM | COLO 205 49.7 µM | KM12 30.3 µM | OVCAR-8 61 µM | HCT-116 52 µM

CC(C)OP(=O)(OC(C)C)/C(Cl)=N/Nc1ccc([N+](=O)[O-])cc1
inactive: M14 > 100 µM | LOX IMVI 44.9 µM | Malme-3M > 100 µM | M19-MEL > 100 µM | A549 > 100 µM | U-251 > 100 µM | SK-MEL-5 > 100 µM | RPMI-8226 > 100 µM | NCI-H522 > 100 µM | UO-31 > 100 µM | SK-MEL-28 > 100 µM | K562 38.7 µM | TK-10 > 100 µM | COLO 205 > 100 µM | KM12 > 100 µM | OVCAR-8 > 100 µM | HCT-116 > 100 µM

CCOC(=O)C(=O)Nc1nc2ccc(OC)cc2s1
inactive: M14 > 100 µM | LOX IMVI > 100 µM | Malme-3M > 100 µM | M19-MEL > 100 µM | A549 > 100 µM | U-251 > 100 µM | SK-MEL-5 > 100 µM | RPMI-8226 > 100 µM | NCI-H522 > 10 µM | UO-31 > 100 µM | SK-MEL-28 > 100 µM | K562 > 100 µM | TK-10 > 100 µM | COLO 205 > 100 µM | KM12 > 100 µM | OVCAR-8 > 100 µM

COc1cc2c[n+]3ccc4cc(OC)c(OC)cc4c3cc2cc1O
inactive: M14 > 100 µM | LOX IMVI > 100 µM | Malme-3M > 100 µM | M19-MEL > 100 µM | A549 > 100 µM | U-251 > 100 µM | SK-MEL-5 > 100 µM | RPMI-8226 > 100 µM | NCI-H522 > 100 µM | RXF 393 > 100 µM | UO-31 > 100 µM | SK-MEL-28 > 100 µM | K562 > 100 µM | TK-10 > 100 µM | KM12 > 100 µM | OVCAR-8 > 100 µM | HCT-116 > 100 µM

CC1CCCc2c1c1ccc3c(O)cccc3c1oc2=O (stereo unspecified)
inactive: M14 > 100 µM | LOX IMVI 95.5 µM | Malme-3M > 100 µM | M19-MEL > 100 µM | A549 56.9 µM | U-251 33.8 µM | RPMI-8226 55.1 µM | NCI-H522 13.7 µM | RXF 393 18.8 µM | UO-31 > 100 µM | SK-MEL-28 > 100 µM | K562 > 100 µM | TK-10 28.8 µM | COLO 205 > 100 µM | KM12 > 100 µM | OVCAR-8 31.3 µM | HCT-116 91.8 µM

N#CCc1nc2c(s1)C(=O)c1ccccc1C2=O
inactive: M14 15.2 µM | LOX IMVI 13.5 µM | Malme-3M 19.9 µM | M19-MEL 2.84 µM | U-251 17.3 µM | SK-MEL-5 11.4 µM | RPMI-8226 5.37 µM | NCI-H522 14.7 µM | RXF 393 30.6 µM | UO-31 15.5 µM | SK-MEL-28 18.2 µM | K562 11.8 µM | TK-10 21.8 µM | COLO 205 18.7 µM | KM12 18.5 µM | OVCAR-8 10.8 µM | HCT-116 14.3 µM
